Here are results for four compounds from patent US10899738B2 (THE REGENTS OF THE UNIVERSITY OF MICHIGAN, priority 2016, dated 2021).

Like-named read-outs stand apart in the source and are kept apart here.

The nature of experiment [1]: Cell growth inhibition, CellTiter-Glo Luminescent Cell Viability Assay. In kind it is cell-based. The method, boiled down:
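Cells seeded at 2,000/well with serially diluted compound and cultured 4 days at 37 °C, 5% CO2. Viability read by CellTiter-Glo luminescence; IC50 derived from dose-response.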
For orientation: ATP-based viability assays read luminescence as a measure of living cells.

The test system of another experiment is MOLM-13 cells. The experiment can be described thus: Mechanism of action studies, gene expression measured with qPCR in MOLM-13 cells. In kind it is cell-based. The method, then: (§1) MOLM-13 or MV4-11 cells were seeded in a 6-well plate at a density of 500,000 cells/well in 2 ml of culture medium and treated with either Cpd. No. 210 or Cpd. No. 366 at the concentrations as indicated. About 4 days after the treatments, cells were harvested and the expression of each gene was measured with qPCR.
MOLM-13 cells were seeded in a 6-well plate at a density of 500,000 cells/well in 2 ml of culture medium and treated with either Cpd. No. 366 or Cpd. No. 238 at the concentrations as indicated. About 66 hours after the treatment, cells were harvested and the expression of each gene was measured with qPCR.
(§2) MOLM-13 or MV4-11 cells were seeded in a 6-well plate at a density of 500,000-800,000 cells/well in 2 ml of culture medium and treated with either Cpd. No. 366 or Cpd. No. 215 at the concentrations as indicated. About 40 hours after the treatment, cells were harvested and the expression of each gene was measured with qPCR.
For orientation: Real-time PCR tracks product formation cycle by cycle.

For the next experiment, the target named is menin protein (Homo sapiens (Human), UniProt O00255). The experiment can be described thus: biochemical. In kind it is binding. Put shortly: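 Test compounds displaced FAM-MM2 (2 nM) from 4 nM menin after 30 min equilibration at room temperature in PBS buffer containing bovine γ-globulin, 4% DMSO and Triton X-100. Binding was followed by fluorescence polarization. Competition curves were fitted by nonlinear regression to give IC50 and Ki.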
Sequence of menin protein (O00255 whole entry): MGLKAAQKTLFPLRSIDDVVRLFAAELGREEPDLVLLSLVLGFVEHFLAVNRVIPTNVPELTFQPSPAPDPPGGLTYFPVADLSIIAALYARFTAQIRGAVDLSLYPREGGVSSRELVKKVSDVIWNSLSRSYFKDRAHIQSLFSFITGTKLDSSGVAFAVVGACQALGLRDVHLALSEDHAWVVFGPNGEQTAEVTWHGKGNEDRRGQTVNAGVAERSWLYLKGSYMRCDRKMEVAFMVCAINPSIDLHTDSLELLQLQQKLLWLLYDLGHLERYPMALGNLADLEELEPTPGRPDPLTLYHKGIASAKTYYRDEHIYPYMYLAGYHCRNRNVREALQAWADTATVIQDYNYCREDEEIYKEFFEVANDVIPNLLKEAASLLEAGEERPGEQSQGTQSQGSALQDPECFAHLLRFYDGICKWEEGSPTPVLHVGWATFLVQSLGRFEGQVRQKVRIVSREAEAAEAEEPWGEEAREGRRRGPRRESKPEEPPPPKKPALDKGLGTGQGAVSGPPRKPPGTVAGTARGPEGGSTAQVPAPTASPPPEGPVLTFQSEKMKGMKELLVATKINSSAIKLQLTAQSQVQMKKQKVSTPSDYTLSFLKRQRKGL

The next experiment deals with MV4-11 cells. The experiment can be described thus: Mechanism of action studies, gene expression measured with qPCR in MV4-11 cells. It is filed as cell-based. The method, then: as §1, §2
Where [2] appears, read: MOLM-13, 96 h, read-out: Cell Growth Inhibition IC50 (μM) MOLM13.
Setting [3] is: MV4-11, 96 h, read-out: Cell Growth Inhibition IC50 (μM) MV4, 11.
The mark [4] stands for this setting: 66 hours of treatment, dose dependent.
[5] abbreviates: 4 days of treatment, dose dependent.
[6] abbreviates: FP competitive binding, menin protein 4 nM, FAM-MM2 probe 2 nM, read-out: Menin Binding Affinity IC50.

Take `CNC(=O)O[C@H]1CCC[C@@H]1C(Cn1ccnc1)(c1ccccc1)C1CCN(CC2CN(c3ccc(C#N)cc3)C2)CC1` (mixture of isomers) [Cpd. No. 366, rac-(1S,2R)-2-(1-(1-((1-(4-cyanophenyl)azetidin-3-yl)methyl)piperidin-4-yl)-2-(1H-imidazol-1-yl)-1-phenylethyl)cyclopentyl methylcarbamate]: the IC50 (as a rule, the point on the concentration scale where inhibition reaches its midpoint) in experiment [1] (setting [2]) was found to be 0.14 µM; in experiment [1] (setting [3]), 0.035 µM; on menin protein (setting [6]), 0.009 µM. For the same compound, the MEIS1 gene expression result in the experiment with MOLM-13 cells (40 hours of treatment), in the experiment on MOLM-13 cells (66 hours of treatment), in the experiment on MOLM-13 cells (4 days of treatment), in the experiment on MV4-11 cells (40 hours of treatment) and in the experiment with MV4-11 cells (4 days of treatment) was “reduced” throughout. The “all the tested HOX genes (HOX7, HOX9, HOX10, HOX11) expression” value with MOLM-13 cells (40 hours of treatment, dose dependent) is on record as “reduces”. For the same compound, in the experiment on MOLM-13 cells (66 hours of treatment), the ITGAM gene expression result is recorded as “not effect”. Also, the HOX7 gene expression result in the experiment with MOLM-13 cells (setting [4]) is recorded as “reduced”; in the experiment on MOLM-13 cells (setting [5]), “reduced”; with MV4-11 cells (40 hours of treatment), “Neither Cpd. No. 366 nor Cpd. No. 215 showed an effect”; in the experiment on MV4-11 cells (4 days of treatment), “not as robust as those of HOX10”. Besides, the HOX10 gene expression result was “reduced” in the experiment with MOLM-13 cells (setting [4]), “reduced” with MOLM-13 cells (setting [5]), “significantly reduced” in the experiment on MV4-11 cells (40 hours of treatment) and “reduced” with MV4-11 cells (setting [5]). In addition, the MYB gene expression result in the experiment on MOLM-13 cells (4 days of treatment, high concentration) is listed as “may reduce”; in the experiment on MV4-11 cells (4 days of treatment), “no effect”. Besides, the HOX11 gene expression result with MV4-11 cells (40 hours of treatment) was “significantly reduced”.

`CNC(=O)O[C@H]1CCC[C@@H]1C(C#N)(c1ccccc1)C1CCN(CC2CN(c3ccc(S(=O)(=O)c4ccncc4)cc3)C2)CC1` (mixture of isomers) [Cpd. No. 215, rac-(1S,2R)-2-(cyano(phenyl)(1-((1-(4-(pyridin-4-ylsulfonyl)phenyl)azetidin-3-yl)methyl)piperidin-4-yl)methyl)cyclopentyl methylcarbamate]: the IC50 in experiment [1] (MOLM-13, 96 h, read-out: Cell Growth Inhibition IC50 (μM) MOLM13, MOLM13 cells, 4 days, CellTiter-Glo) is 0.415 ± 0.208 µM; in experiment [1] (MV4-11, 96 h, read-out: Cell Growth Inhibition IC50 (μM) MV4, 11, MV4, 11 cells, 4 days, CellTiter-Glo), 0.173 ± 0.048 µM; on menin protein (setting [6]), 0.006 µM. Moreover, the HOX7 gene expression entry with MV4-11 cells (40 hours of treatment) is reported as “Neither Cpd. No. 366 nor Cpd. No. 215 showed an effect”.

As for `CNC(=O)O[C@H]1CCC[C@@H]1C(Cn1ccnc1)(c1ccccc1)C1CCN(CC2CN(c3ccc(S(=O)(=O)c4cnn(C)c4)cc3)C2)CC1` (mixture of isomers) [compound 238, rac-(1S,2R)-2-(2-(1H-imidazol-1-yl)-1-(1-((1-(4-((1-methyl-1H-pyrazol-4-yl)sulfonyl)phenyl)azetidin-3-yl)methyl)piperidin-4-yl)-1-phenylethyl)cyclopentyl methylcarbamate], the IC50 in experiment [1] (setting [2]) amounted to 0.16 µM; in experiment [1] (setting [3]), 0.027 µM; at menin protein (setting [6]), 0.008 µM. In the experiment on MOLM-13 cells (66 hours of treatment), the ITGAM gene expression result is on record as “not effect”. Further, the MEIS1 gene expression entry in the experiment with MOLM-13 cells (66 hours of treatment) is “reduced”. The HOX7 gene expression entry in the experiment with MOLM-13 cells (setting [4]) is on record as “reduced”. In addition, in the experiment on MOLM-13 cells (setting [4]), the HOX10 gene expression entry is recorded as “reduced”.

Take `CNC(=O)O[C@H]1CCC[C@@H]1C1(C2CCN(CC3CN(c4ccc(S(=O)(=O)c5ccncc5)cc4)C3)CC2)CN(C)Cc2ccccc21` (mixture of isomers) [Cpd. No. 210, rac-(1S,2R)-2-(2-methyl-4-(1-((1-(4-(pyridin-4-ylsulfonyl)phenyl)azetidin-3-yl)methyl)piperidin-4-yl)-1,2,3,4-tetrahydroisoquinolin-4-yl)cyclopentyl methylcarbamate]: the IC50 was 0.135 ± 0.093 µM in experiment [1] (setting [2]), 0.023 ± 0.016 µM in experiment [1] (setting [3]) and 0.004 µM on menin protein (Menin Binding Affinity IC50 (μM)). The MEIS1 gene expression entry with MOLM-13 cells (4 days of treatment) and in the experiment with MV4-11 cells (4 days of treatment) was “reduced” each time. Further, the HOX7 gene expression entry in the experiment with MOLM-13 cells (setting [5]) is “reduced”; with MV4-11 cells (4 days of treatment) it was “not as robust as those of HOX10”. The HOX10 gene expression result in the experiment on MOLM-13 cells (setting [5]) and in the experiment on MV4-11 cells (setting [5]) was “reduced” each time. Besides, the MYB gene expression entry in the experiment with MV4-11 cells (4 days of treatment) was “no effect”.
